Source: patent US8551693B2 (priority 2008, dated 2013)
Read-outs that look alike come from different tables or passages of the source.

What was measured:
[1] = biological target: T1, Nav1.5^Mut sodium channel (mutated human Nav1.5) (Homo sapiens, UniProt Q14524, F1486Q/K1419C); type: cell-based
T1 construct: expressed in transfected cells; host or cells: HEK293 cells stably expressing the Cameleon (Venus/CFP) calcium biosensor; clone VC/Nav1.5 #12
Method: VC/Nav1.5 #12 cells were incubated with different concentrations of quinidine (FIG. 6A), sertralin (FIG. 6B) or paroxetine (FIG. 6C), and a first fluorescence reading was performed, (FVenus/FCFP)0. 25 mM Ca^2+ was added to activate the channel and a second fluorescence reading was performed, (FVenus/FCFP)ca2+. […] Error bars represent the standard deviation of experiments performed in triplicate;
The fluorescence intensity was measured using a Packard Fusion™ Universal Microplate Analyzer. 75,000 cells per well were analyzed in a bath solution containing 140 mM NaCl, 2 mM KCl, 1.5 mM CaCl2, 1 mM MgCl2, 10 mM glucose, and 10 mM Na-HEPES. For calcium measurements, the bath solution contained: 140 mM NaCl, 2 mM KCl, 25 mM CaCl2, 10 mM glucose and 10 mM Na-HEPES. The pH of the bath solutions was adjusted to pH 7.4 using 1N NaOH.
Dose-response experiments in the presence of known sodium channel blockers (quinidine, sertralin and paroxetine) were performed.

[2] = system: VC #7 control Cameleon HEK293 cell line; experiment: Cameleon FRET fluorescence microplate assay in control Cameleon cell line VC #7 (does not express a sodium channel); type: cell-based, human; conditions: VC #7 cell line that does not express a sodium channel; FIG. 4B
Excerpt: The reporter cell lines described herein are derived from the HEK293 cell line, which, in turn, is derived from human embryonic kidney. […] To generate a Nav1.5^Mut/Cameleon reporter cell line, the first step was to establish a HEK293 cell line which expresses the Cameleon calcium biosensor alone. HEK293 cells were transfected with a vector (pIREShyg3, Clonetech, Cat. No. 631620) encoding the Cameleon construct (as described in Evanko and Haydon, Cell Calcium (2005) 37: 341-348). This cell line that express the Cameleon alone was then stably transfected with the pcDNA4neo-Nav1.5^Mut expression vector (see FIG. 7A for the sequence of Nav1.5^Mut). […] The resulting cell lines were then assessed in patch-clamp for their capacity to produce robust current amplitude.
Cameleon is a fluorescent biosynthetic Ca^2+ indicator constructed by inserting a Ca^2+ sensor (Calmodulin and M13, a calmodulin-binding protein) between two mutated forms of green fluorescent protein (GFP): the energy acceptor Venus, a derivative of yellow fluorescent protein (YFP), and the energy donor, cyan fluorescent protein (CFP) (Evanko D S and Haydon P G, Cell calcium 2005, 37: 341-348). Cameleon fluorescence is affected by differences in the concentration of Ca^2+ that alter the amount of fluorescence resonance energy transfer (FRET) between CFP and Venus. […]

[3] = system: HEK293 Cameleon cell line (intracellular Ca2+); experiment: Confocal microscopy FRET ratio in HEK293 cell line stably expressing the Cameleon biosensor alone; type: cell-based, human; conditions: 10 μM ionomycin, ratio versus time, FIG. 3B
Method: FIG. 3A: Individual Venus (right panel) and CFP (left panel) fluorescence image taken with a 40× objective. FIG. 3B: Plot of FRET ratio (Venus/CFP) versus time following addition of 10 μM ionomycin;
A HEK293 cell line stably expressing the Cameleon biosensor alone was treated with ionomycin (10 μM), a calcium ionophore, to raise the intracellular level of Ca^2+, and the FRET ratio was analysed by confocal microscopy.

## C[C@H](CCC(=O)O)C[C@H](C)C[C@H](C)C(=O)/C=C(\O)[C@H](C)C[C@H](C)C/C=C/[C@@H](C)[C@@H](O)[C@@H](C)[C@@H](O)C[C@@H]1CC[C@@](C)([C@H]2CC[C@@](C)([C@@H](C)O)O2)O1 [ionomycin]
[1]; VC/Nav1.5 #12 and #14 cell lines, FIG. 4B
  FRET response to treatment: respond
[2]
  FRET response to treatment: respond only to ionomycin
[3]
  FRET ratio (Venus/CFP): increase in the Venus/CFP ratio

## Fc1ccc([C@@H]2CCNC[C@H]2COc2ccc3c(c2)OCO3)cc1 [paroxetine]
[1]; VC/Nav1.5 #12 cells, increasing doses of blocker, 25 mM Ca2+ added to activate the channel, compared to control cells receiving buffer only, FIG. 6
  Delta FRET ratio signal, (FVenus/FCFP)Ca2+/(FVenus/FCFP)0: decrease in the Delta FRET ratio signal

## C=C[C@H]1C[N@@]2CC[C@H]1C[C@@H]2[C@@H](O)c1ccnc2ccc(OC)cc12 [quinidine]
[1]
  Delta FRET ratio signal, (FVenus/FCFP)Ca2+/(FVenus/FCFP)0: decrease in the Delta FRET ratio signal

## CN[C@H]1CC[C@@H](c2ccc(Cl)c(Cl)c2)c2ccccc21 [sertralin]
[1]
  Delta FRET ratio signal, (FVenus/FCFP)Ca2+/(FVenus/FCFP)0: decrease in the Delta FRET ratio signal
